Reference: patent US9951068B2 (Proximagen Limited, priority 2013, dated 2018)
Structures can show the parent of a compound that is named as a salt.

Columns and labels:
[1] = target: human ether a go-go related gene (hERG) K+ channel (Homo sapiens (Human), UniProt Q12809); assay: hERG assay, IonWorks patch clamp electrophysiology; format: cell-based; conditions: Chinese Hamster Lung cell line stably expressing hERG; max assay concentration 11 uM
Method: Compounds of the invention were tested for inhibition of the human ether a go-go related gene (hERG) K^+ channel using IonWorks patch clamp electrophysiology. 8 Point concentration-response curves were generated on two occasions using 3-fold serial dilutions from the maximum assay concentration (11 uM). Electrophysiological recordings were made from a Chinese Hamster Lung cell line stably expressing the full length hERG channel. Single cell ion currents were measured in the perforated patch clamp configuration (100 ug/mL amphoterocin) at room temperature using an IonWorks Quattro instrument. The internal solution contained 140 mM KCl, 1 mM MgCl2, 1 mM EGTA and 20 mM HEPES and was buffered to pH 7.3. The external solution contained 138 mM NaCl, 2.7 mM KCl, 0.9 mM CaCl2, 0.5 mM MgCl2, 8 mM Na2HPO4 and 1.5 mM KH2PO4, and was buffered to pH 7.3. […] This sequence was repeated 5 times at a frequency of 0.25 Hz. Currents were measured from the tail step at the 5th pulse, and referenced to the holding current. Compounds were incubated for 6-7 min prior to a second measurement of the hERG signal using an identical pulse train. […] A control compound (quinidine) was used (see Table 20 below).

[2] = target: purified recombinantly expressed human SSAO (Homo sapiens (Human), UniProt Q16853); assay: SSAO enzyme inhibition assay (HRP-coupled hydrogen peroxide detection or 14C-benzaldehyde detection, benzylamine substrate); format: biochemical; conditions: SSAO inhibitory activity, human recombinant SSAO, RT
Method: All primary assays were performed at RT. with purified recombinantly expressed human SSAO. Enzyme was prepared essentially as described in Öhman et al. (Protein Expression and Purification 46 (2006) 321-331). In addition, secondary- and selectivity assays were performed using SSAO prepared from various tissues or purified rat recombinant SSAO. The enzyme activity was assayed with benzylamine as substrate by measuring either benzaldehyde production, using ^14C-labeled substrate, or by utilizing the production of hydrogen peroxide in a horseradish peroxidase (HRP) coupled reaction. Briefly, test compounds were dissolved in dimethyl sulfoxide (DMSO) to a concentration of 10 mM. Dose-response measurements were assayed by either creating 1:10 serial dilutions in DMSO to produce a 7 point curve or by making 1:3 serial dilutions in DMSO to produce 11 point curves.
In a horseradish peroxidase (HRP) coupled reaction, hydrogen peroxide oxidation of 10-acetyl-3,7-dihydroxyphenoxazine produced resorufin, which is a highly fluorescent compound (Zhout and Panchuk-Voloshina. Analytical Biochemistry 253 (1997) 169-174; Amplex® Red Hydrogen Peroxide/peroxidase Assay kit, Invitrogen A22188). Enzyme and compounds in 50 mM sodium phosphate, pH 7.4 were set to pre-incubate in flat-bottomed microtiter plates for approximately 15 min before initiating the reaction by addition of a mixture of HRP, benzylamine and Amplex reagent. Benzylamine concentration was fixed at a concentration corresponding to the Michaelis constant, determined using standard procedures. Fluorescence intensity was then measured at several time points during 1-2 h, exciting at 544 nm and reading the emission at 590 nm. For the human SSAO assay final concentrations of the reagents in the assay wells were: SSAO enzyme 1 ug/ml, benzylamine 100 uM, Amplex reagent 20 uM, HRP 0.1 U/mL and varying concentrations of test compound. The inhibition was measured as % decrease of the signal compared to a control without inhibitor (only diluted DMSO). The background signal from a sample containing no SSAO enzyme was subtracted from all data points. Data was fitted to a four parameter logistic model and IC50 values were calculated using the GraphPad Prism 4 or XLfit 4 programs.
SSAO activity was assayed using 14C-labeled benzylamine and analysed by measuring radioactive benzaldehyde. In a white 96-well optiplate (Packard), 20 uL of diluted test compound was pre-incubated at room temperature with 20 uL SSAO enzyme for approximately 15 min with continuous agitation. All dilutions were made with PBS. The reaction was initiated by adding 20 uL of the benzylamine substrate solution containing [7-14C] Benzylamine hydrochloride (CFA589, GE Healthcare). The plate was incubated for 1 h as above after which the reaction was stopped by acidification (10 uL 1M aq HCl). Then 90 uL Micro Scint-E solution (Perkin-Elmer) was added to each well and the plate was continuously mixed for 15 min. Phase separation occurred instantly and activity was read in a Topcount scintillation counter (Perkin-Elmer). In the final reaction well, the human recombinant SSAO concentration was 10 ug/ml. In order to optimize sensitivity, the substrate concentration was decreased as compared to the HRP coupled assay in order to get a higher fraction of radioactive product. In the human SSAO assay, benzylamine concentration was 40 uM (0.2 uCi/mL). Data was analysed as above.

purified recombinantly expressed human SSAO, sequence (Q16853 29-763): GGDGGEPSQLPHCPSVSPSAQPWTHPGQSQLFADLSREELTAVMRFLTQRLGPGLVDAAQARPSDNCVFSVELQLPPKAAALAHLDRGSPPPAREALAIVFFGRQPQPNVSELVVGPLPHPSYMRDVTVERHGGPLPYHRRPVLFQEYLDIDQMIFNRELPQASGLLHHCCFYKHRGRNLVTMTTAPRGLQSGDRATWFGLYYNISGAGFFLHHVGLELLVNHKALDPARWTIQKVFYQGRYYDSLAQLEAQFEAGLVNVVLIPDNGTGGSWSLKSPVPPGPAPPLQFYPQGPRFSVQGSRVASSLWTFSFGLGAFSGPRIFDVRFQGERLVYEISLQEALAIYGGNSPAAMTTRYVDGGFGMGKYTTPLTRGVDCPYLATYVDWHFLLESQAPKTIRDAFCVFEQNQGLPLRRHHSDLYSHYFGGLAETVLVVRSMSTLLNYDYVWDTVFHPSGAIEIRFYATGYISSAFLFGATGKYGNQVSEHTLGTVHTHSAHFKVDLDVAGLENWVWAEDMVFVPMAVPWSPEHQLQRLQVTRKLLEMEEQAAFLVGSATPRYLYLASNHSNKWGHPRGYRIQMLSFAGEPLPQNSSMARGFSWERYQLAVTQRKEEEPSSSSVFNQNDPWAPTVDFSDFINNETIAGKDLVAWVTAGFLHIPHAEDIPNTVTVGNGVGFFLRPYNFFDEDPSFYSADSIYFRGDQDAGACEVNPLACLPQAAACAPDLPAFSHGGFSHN
human ether a go-go related gene (hERG) K+ channel, sequence (Q12809 whole entry): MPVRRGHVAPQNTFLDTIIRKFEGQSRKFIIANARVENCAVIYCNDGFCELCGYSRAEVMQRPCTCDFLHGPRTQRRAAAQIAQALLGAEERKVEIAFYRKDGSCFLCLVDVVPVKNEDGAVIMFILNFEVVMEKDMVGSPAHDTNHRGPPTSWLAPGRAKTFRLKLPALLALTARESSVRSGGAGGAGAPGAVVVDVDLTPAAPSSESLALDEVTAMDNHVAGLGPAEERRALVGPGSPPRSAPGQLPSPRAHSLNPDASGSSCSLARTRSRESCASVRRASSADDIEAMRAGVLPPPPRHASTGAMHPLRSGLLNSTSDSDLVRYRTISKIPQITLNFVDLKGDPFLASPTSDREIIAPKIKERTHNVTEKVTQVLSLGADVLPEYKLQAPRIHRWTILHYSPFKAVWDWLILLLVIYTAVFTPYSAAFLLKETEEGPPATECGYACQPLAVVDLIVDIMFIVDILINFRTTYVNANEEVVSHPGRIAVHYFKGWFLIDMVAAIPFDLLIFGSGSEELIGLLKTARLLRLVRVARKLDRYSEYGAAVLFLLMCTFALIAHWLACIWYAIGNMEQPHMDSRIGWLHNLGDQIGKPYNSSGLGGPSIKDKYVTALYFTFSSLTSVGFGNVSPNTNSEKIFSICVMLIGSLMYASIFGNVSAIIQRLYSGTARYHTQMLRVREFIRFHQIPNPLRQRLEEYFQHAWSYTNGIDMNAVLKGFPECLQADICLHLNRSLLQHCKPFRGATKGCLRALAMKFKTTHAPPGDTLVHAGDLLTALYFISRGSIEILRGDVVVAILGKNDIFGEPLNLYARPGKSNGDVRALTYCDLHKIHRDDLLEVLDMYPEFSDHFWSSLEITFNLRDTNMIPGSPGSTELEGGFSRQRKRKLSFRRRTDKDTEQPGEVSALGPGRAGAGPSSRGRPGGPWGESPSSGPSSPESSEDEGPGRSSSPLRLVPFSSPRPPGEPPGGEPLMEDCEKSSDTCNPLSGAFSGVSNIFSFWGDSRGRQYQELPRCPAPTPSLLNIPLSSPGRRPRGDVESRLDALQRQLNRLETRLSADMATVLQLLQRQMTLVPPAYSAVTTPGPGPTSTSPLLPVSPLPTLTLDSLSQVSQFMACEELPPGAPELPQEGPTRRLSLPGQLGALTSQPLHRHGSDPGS

Row | IC50 [2] | Compound | IC50 [1]
1 | < 0.05 µM | Clc1ccc(-n2c(-c3cnc(N4CCOCC4)nc3)nc3ccncc32)nc1 [Example 75, 4-{5-[3-(5-Chloropyridin-2-yl)-3H-imidazo[4,5-c]pyridin-2-yl]pyrimidin-2-yl}morpholine; tris(trifluoroacetic acid)] | > 10 µM
2 | < 0.05 µM | Cn1cncc1-c1cc2ccncc2n1-c1ccc(Cl)cc1 [Example 136, 5-[1-(4-Chlorophenyl)-1H-pyrrolo[2,3-c]pyridin-2-yl]-1-methyl-1H-im idazole] | 1 to 10 µM
3 | < 0.05 µM | CC1(C)CN(c2ncc(-c3nc4ccncc4n3-c3ccc(F)cc3)cn2)CCO1 [Example 24, 4-{5-[3-(4-Fluorophenyl)-3H-imidazo[4,5-c]pyridin-2-yl]pyrimidin-2-yl}-2,2-dimethylmorpholine] | > 10 µM
4 | < 0.05 µM | Fc1ccc(-n2c(-c3cnc(N4CCOCC4)nc3)nc3ccncc32)c(F)c1 [Example 78, 4-{5-[3-(2,4-Difluorophenyl)-3H-imidazo[4,5-c]pyridin-2-yl]pyrimidin-2-yl}morpholine] | > 10 µM
5 | < 0.05 µM | CC(=O)NC1CCN(c2ccc(-c3nc4ccncc4n3-c3ccc(Cl)cc3)cn2)CC1 [Example 85, N-(1-{5-[3-(4-Chlorophenyl)-3H-imidazo[4,5-c]pyridin-2-yl]pyridin-2-yl}piperidin-4-yl)acetamide] | > 10 µM
6 | < 0.05 µM | Clc1ccc(-n2c(-c3ccc(N4CCOCC4)nc3)nc3ccncc32)nc1 [Example 81, 4-{5-[3-(5-Chloropyridin-2-yl)-3H-imidazo[4,5-c]pyridin-2-yl]pyridin-2-yl}morpholine] | > 10 µM
7 | < 0.05 µM | CC1CN(c2ccc(-c3nc4ccncc4n3-c3ccc(F)cc3)cn2)CCO1 (centres unmarked) [Example 70, 4-{5-[3-(4-Fluorophenyl)-3H-imidazo[4,5-c]pyridin-2-yl]pyridin-2-yl}-2-methylmorpholine] | > 10 µM
8 | < 0.05 µM | O=C1CN(c2ncc(-c3nc4ccncc4n3-c3ccc(Cl)cc3)cn2)CCN1 [Example 13, 4-{5-[3-(4-Chlorophenyl)-3H-imidazo[4,5-c]pyridin-2-yl]pyrimidin-2-yl}piperazin-2-one] | > 10 µM
9 | < 0.05 µM | Clc1ccc(-n2c(-c3cnc(NC4CCOCC4)nc3)nc3ccncc32)cc1 [Example 11, 5-[3-(4-Chlorophenyl)-3H-imidazo[4,5-c]pyridin-2-yl]-N-(oxan-4-yl)pyrimidin-2-amine; bis(trifluoroacetic acid)] | > 10 µM
10 | < 0.05 µM | CS(=O)(=O)N1CCN(c2ccc(-c3nc4ccncc4n3-c3ccc(F)cc3)cn2)CC1 [Example 89, 1-{5-[3-(4-Fluorophenyl)-3H-imidazo[4,5-c]pyridin-2-yl]pyridin-2-yl}-4-methanesulfonylpiperazine] | > 10 µM
11 | – | COCCN(C)c1ncc(-c2nc3ccncc3n2-c2ccc(C)cc2)cn1 [Example 117, N-(2-Methoxyethyl)-N-methyl-5-[3-(4-methylphenyl)-3H-imidazo[4,5-c]pyridin-2-yl]pyrimidin-2-amine] | > 10 µM
12 | < 0.05 µM | Fc1ccc(-n2c(-c3cnc(N4CCOCC4)nc3)nc3ccncc32)cc1 [Example 52, 4-{5-[3-(4-Fluorophenyl)-3H-imidazo[4,5-c]pyridin-2-yl]pyrimidin-2-yl}morpholine] | > 10 µM
13 | < 0.05 µM | CC(=O)N1CCN(c2ccc(-c3nc4ccncc4n3-c3ccc(F)cc3)cn2)CC1 [Example 86, 1-(4-{5-[3-(4-Fluorophenyl)-3H-imidazo[4,5-c]pyridin-2-yl]pyridin-2-yl}piperazin-1-yl)ethan-1-one] | > 10 µM
14 | < 0.05 µM | Cc1cc(N2CCOCC2)ncc1-c1nc2ccncc2n1-c1ccc(F)cc1 [Example 21, 4-{5-[3-(4-Fluorophenyl)-3H-imidazo[4,5-c]pyridin-2-yl]-4-methylpyridin-2-yl}morpholine] | > 10 µM
15 | – | c1ccc(-n2c(-c3cnc(N4CCOCC4)nc3)nc3ccncc32)cc1 [Example 95, 4-(5-{3-Phenyl-3H-imidazo[4,5-c]pyridin-2-yl}pyrimidin-2-yl)morpholine] | > 10 µM
16 | – | O=C1CN(c2ncc(-c3nc4ccncc4n3-c3ccc(F)cc3)cn2)CCN1 [Example 12, 4-{5-[3-(4-Fluorophenyl)-3H-imidazo[4,5-c]pyridin-2-yl]pyrimidin-2-yl}piperazin-2-one] | > 10 µM
17 | – | Clc1ccc(-n2c(-c3ccncc3)nc3ccncc32)cc1 [Example 2, 4-[3-(4-Chlorophenyl)-3H-imidazo[4,5-c]pyridin-2-yl]pyridine] | > 10 µM
18 | – | Cc1ccc(-n2c(-c3cnc(N4CCOCC4)nc3)nc3ccncc32)cc1 [Example 57, 4-{5-[3-(4-Methylphenyl)-3H-imidazo[4,5-c]pyridin-2-yl]pyrimidin-2-yl}morpholine] | > 10 µM
19 | < 0.05 µM | O=C1CN(c2ncc(-c3cc4ccncc4n3-c3ccc(Cl)cc3)cn2)CCN1 [Example 128, 4-{5-[1-(4-Chlorophenyl)-1H-pyrrolo[2,3-c]pyridin-2-yl]pyrimidin-2-yl}piperazin-2-one] | > 10 µM
20 | – | CN(C)c1ccc(-c2nc3ccncc3n2-c2ccc(F)cc2)cn1 [Example 71, 5-[3-(4-Fluorophenyl)-3H-imidazo[4,5-c]pyridin-2-yl]-N,N-dimethylpyridin-2-amine] | > 10 µM
21 | – | Clc1ccc(-n2c(-c3ccc(CN4CCOCC4)nc3)nc3ccncc32)cc1 [Example 3, 4-({5-[3-(4-Chlorophenyl)-3H-imidazo[4,5-c]pyridin-2-yl]pyridin-2-yl}methyl)morpholine] | > 10 µM
22 | < 0.05 µM | Cc1ccc(-n2c(-c3ccc(N4CCOCC4)nc3)nc3ccncc32)nc1 [Example 82, 4-{5-[3-(5-Methylpyridin-2-yl)-3H-imidazo[4,5-c]pyridin-2-yl]pyridin-2-yl}morpholine] | > 10 µM
23 | – | Cc1ccc(-n2c(-c3ccc(N4CCOCC4)nc3)nc3ccncc32)cn1 [Example 64, 4-{5-[3-(6-Methylpyridin-3-yl)-3H-imidazo[4,5-c]pyridin-2-yl]pyridin-2-yl}morpholine] | > 10 µM
24 | – | Clc1ccc(-n2c(-c3cnc(N4CCNCC4)o3)nc3ccncc32)cc1 [Example 18, 1-{5-[3-(4-Chlorophenyl)-3H-imidazo[4,5-c]pyridin-2-yl]-1,3-oxazol-2-yl}piperazine dihydrochloride] | > 10 µM
25 | – | Fc1cc(Cl)ccc1-n1c(-c2ccc(N3CCOCC3)nc2)nc2ccncc21 [Example 80, 4-{5-[3-(4-Chloro-2-fluorophenyl)-3H-imidazo[4,5-c]pyridin-2-yl]pyridin-2-yl}morpholine] | > 10 µM
26 | – | NC(=O)NC1CCN(c2ccc(-c3nc4ccncc4n3-c3ccc(Cl)cc3)cn2)CC1 [Example 91, (1-{5-[3-(4-Chlorophenyl)-3H-imidazo[4,5-c]pyridin-2-yl]pyridin-2-yl}piperidin-4-yl)urea; bis(trifluoroacetic acid)] | > 10 µM
